Molecular target: Tyrosinase (Agaricus bisporus)
Assay: Inhibitory activity was evaluated against the oxidation of L-3,4-dihydroxyphenylalanine (L-DOPA) catalyzed by mushroom tyrosinase

COc1ccc(C=O)c(O)c1 [2-hydroxy-4-methoxybenzaldehyde] showed an IC50 of 30 µM.

Reference: BindingDB's records for doi:10.1016/j.bmcl.2003.11.033 (University of California, 2004)
